Where two headings read alike, the source gives them in different places.
How the values were obtained:
[1] = test system: CCRF-CEM; test: CCK-8 tumor cell proliferation, CCRF-CEM; type: cell-based, Human; design: IC50 for inhibiting the proliferation of tumor cells, CCRF-CEM: scale not given here; details: for IC50: Homo sapiens, CCRF-CEM
Outline: (§1)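 Viability determined colorimetrically with CCK-8 following compound treatment. Dosing began 24 h post-plating using ten 5-fold dilutions capped at 10 μM; growth-inhibition curves yielded IC50.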

[2] = test system: Hep3B2.7-1; test: CCK-8 tumor cell proliferation, Hep3B2.7-1; type: cell-based, Human; details: Homo sapiens
Experimental: (§2) The tumor cells used herein were cultured in a cell culture medium listed in table 4 at 37° C. in an incubator with 5% CO2. Prior to experimentation, all cells used were correctly identified by STR profiling, and tested negative for mycoplasma through routine screenings.
(§3) IC50 values of the compounds of the present disclosure (including the compounds in Tables 1 and 3, and compounds of examples) were measured using the Meilun Cell Counting Kit-8 kit from Dalian Meilun Biotech Co., Ltd. Assay details are as follows: tumor cells were seeded in a 96-well plate at a density listed in Table 5. After 24 h, 100 μL of the inoculated cells were treated with 0.5 μL of the compounds of the present disclosure (including the compounds in Tables 1 and 3, and compounds of examples) at 10 different successively decreasing concentrations (starting at the highest concentration of 10 μM; 5-fold serial dilutions). After the cells were treated with the compounds of the present disclosure for a period of time, the cell viability detection reagent was added to the culture medium for cell viability assessment according to the instructions provided with the CCK-8 kit. […] The growth inhibition of the compounds of the present disclosure on cells was plotted by Prism Graphpad software, and the IC50 values of the compounds of the present disclosure were calculated therefrom.

[3] = test system: Kasumi-1; test: CCK-8 tumor cell proliferation, Kasumi-1; type: cell-based, Human; details: for IC50: Homo sapiens, Kasumi-1, read-out: IC50 inhibiting proliferation of tumor cells, Kasumi-1
Outline: as §1

[4] = test system: MM.1S; test: CCK-8 tumor cell proliferation, MM.1S; type: cell-based; details: for IC50: Homo sapiens, MM1.S
Outline: as §1

[5] = test system: T47D; test: CCK-8 tumor cell proliferation, T47D; type: cell-based, Human; details: for IC50: Homo sapiens, T47D
Experimental: as §2, §3

[6] = test system: MM.1R; test: CCK-8 tumor cell proliferation, MM.1R; type: cell-based; details: read-out: IC50 inhibiting proliferation of tumor cells, MM.1R
Outline: as §1

[7] = test system: Jurkat; test: CCK-8 tumor cell proliferation, Jurkat; type: cell-based, Human; details: Homo sapiens, read-out: IC50 inhibiting proliferation of tumor cells, Jurkat
Outline: as §1

[8] = test system: SU-DHL-6; test: CCK-8 tumor cell proliferation, SU-DHL-6; type: cell-based, Human; details: 72 h
Experimental: as §2, §3

[9] = test system: HCC827; test: CCK-8 tumor cell proliferation, HCC827; type: cell-based, Human; details: Table 8, designed based on ER inhibitors, 96 h
Experimental: The tumor cells used herein were cultured in a cell culture medium listed in table 4 at 37° C. in an incubator with 5% CO2.
as §3, with “After” for “IC50 values of the compounds of the present disclosure (including the compounds in Tables 1 and 3, and compounds of examples) were measured using the Meilun Cell Counting Kit-8 kit from Dalian Meilun Biotech Co., Ltd. Assay details are as follows: tumor cells were seeded in a 96-well plate at a density listed in Table 5. After”

[10] = test system: Mino; test: CCK-8 tumor cell proliferation, Mino; type: cell-based, Human; details: for IC50 for inhibiting the proliferation of tumor cells, Mino: 72 h
Outline: as §1

[11] = test system: SW620; test: CCK-8 tumor cell proliferation, SW620; type: cell-based, Human
Outline: as §1

[12] = test system: HGC-27; test: CCK-8 tumor cell proliferation, HGC-27; type: cell-based, Human; details: Homo sapiens; Table 18, FAK inhibitor based; HGC-27; read-out: IC50 inhibiting proliferation of tumor cells, HGC-27
Experimental: as §2, §3

[13] = test system: MDA-MB-231; test: CCK-8 tumor cell proliferation, MDA-MB-231; type: cell-based, Human; details: Homo sapiens; Table 18, FAK inhibitor based; MDA-MB-231; read-out: IC50 inhibiting proliferation of tumor cells, MDA-MB-231
Outline: as §1

[14] = test system: SR; test: CCK-8 tumor cell proliferation, SR; type: cell-based, Human; details: Homo sapiens; Table 18, FAK inhibitor based; SR; read-out: IC50 inhibiting proliferation of tumor cells, SR
Outline: as §1

[15] = test system: PC-9; test: CCK-8 tumor cell proliferation, PC-9; type: cell-based, Human; details: Homo sapiens; Table 18, FAK inhibitor based; PC-9; read-out: IC50 inhibiting proliferation of tumor cells, PC-9
[16] = Table 22, NTRK inhibitor based, read-out: IC50 inhibiting proliferation of tumor cells, CCRF-CEM
[17] = Table 22, NTRK inhibitor based, HEP3B2.7-1, read-out: IC50 inhibiting proliferation of tumor cells, HEP3B2.7-1
[18] = Table 22, NTRK inhibitor based, MM.1S, read-out: IC50 inhibiting proliferation of tumor cells, MM.1S
[19] = Table 22, NTRK inhibitor based, read-out: IC50 inhibiting proliferation of tumor cells, T47D
[20] = Table 8, designed based on ER inhibitors
[21] = Table 8, designed based on ER inhibitors, 96 h
[22] = Table 8, designed based on ER inhibitors, 72 h
[23] = Table 14, designed based on CDK4/6 inhibitors

## O=C1CCC(N2Cc3cc(CN4CCN(c5cccc(-c6cnn7ccc(N8CCC[C@@H]8c8cc(F)ccc8F)nc67)n5)CC4)c(F)cc3C2=O)C(=O)N1 (stereo partly drawn) [GT-04264, 3-(5-((4-(6-(5-((R)-2-(2,5-difluorophenyl)pyrrolidin-1-yl)pyrazolo[1,5-a]pyrimidin-3-yl)pyridin-2-yl)piperazin-1-yl)methyl)-6-fluoro-1-oxoisoindolin-2-yl)piperidine-2,6-dione]
[1]; [16]
  IC50: < 50 nM
[2]; [17]
  IC50: < 0.05 µM
[3]; Table 22, NTRK inhibitor based
  IC50: < 50 nM
[4]; [18]
  IC50: < 50 nM
[5]; [19]
  IC50: < 50 nM
[6]; Table 22, NTRK inhibitor based
  IC50: < 50 nM
[7]; Table 22, NTRK inhibitor based
  IC50: < 50 nM

## O=C(Nc1cnn2ccc(N3CCC[C@@H]3c3cc(F)ccc3F)nc12)N1CC[C@H](O)C1 [larotrectinib]
[1]; Table 22, given as number, read-out: IC50 inhibiting proliferation of tumor cells, CCRF-CEM
  IC50: > 10000 nM
[2]; Table 22, HEP3B2.7-1, given as number, read-out: IC50 inhibiting proliferation of tumor cells, HEP3B2.7-1
  IC50: > 10 µM
[3]; Table 22, given as number
  IC50: > 10000 nM
[4]; Table 22, MM.1S, given as number, read-out: IC50 inhibiting proliferation of tumor cells, MM.1S
  IC50: > 10000 nM
[5]; Table 22, given as number, read-out: IC50 inhibiting proliferation of tumor cells, T47D
  IC50: > 10000 nM
[6]; Table 22, given as number
  IC50: > 10000 nM
[7]; Table 22, given as number
  IC50: > 10000 nM

## O=C1CCC(N2Cc3cc(CN4CCN(c5cccc(-c6cnc7ccc(N8CCC[C@@H]8c8cccc(F)c8)nn67)n5)CC4)cc(F)c3C2=O)C(=O)N1 (stereo partly drawn) [GT-03867, 3-(7-fluoro-5-((4-(6-(6-((R)-2-(3-fluorophenyl)pyrrolidin-1-yl)imidazo[1,2-b]pyridazin-3-yl)pyridin-2-yl)piperazin-1-yl)methyl)-1-oxoisoindolin-2-yl)piperidine-2,6-dione]
[1]; [16]
  IC50: < 50 nM
[2]; [17]
  IC50: < 0.05 µM
[3]; Table 22, NTRK inhibitor based
  IC50: < 50 nM
[4]; [18]
  IC50: 50 to 100 nM
[5]; [19]
  IC50: 100 to 500 nM
[6]; Table 22, NTRK inhibitor based
  IC50: < 50 nM
[7]; Table 22, NTRK inhibitor based
  IC50: < 50 nM

## CCC(=C(c1ccc(O)cc1)c1ccc(N2CCN(Cc3ccc4c(c3)CN(C3CCC(=O)NC3=O)C4=O)CC2)cc1)c1ccc(O)cc1 (stereo not drawn) [GT-03551, 3-(5-((4-(4-(1,2-bis(4-hydroxyphenyl)but-1-en-1-yl)phenyl)piperazin-1-yl)methyl)-1-oxoisoindolin-2-yl)piperidine-2,6-dione]
[8]; [20]
  IC50 for inhibiting the proliferation of tumor cells, SU-DHL-6: A+
[1]; [21]
  IC50 for inhibiting the proliferation of tumor cells, CCRF-CEM: A+
[9]
  IC50 for inhibiting the proliferation of tumor cells, HCC827: A+
[3]; [22]
  IC50 for inhibiting the proliferation of tumor cells, Kasumi-1: A+
[4]; [22]
  IC50 for inhibiting the proliferation of tumor cells, MM.1S: A+
[5]; [21]
  IC50 for inhibiting the proliferation of tumor cells, T47D: A+
[10]; [20]
  IC50 for inhibiting the proliferation of tumor cells, Mino: A+
[11]; [21]
  IC50 for inhibiting the proliferation of tumor cells, SW620: A+

## CC/C(=C(/c1ccc(O)cc1)c1ccc(OCCN)cc1)c1ccc(O)cc1 [GT-03308, reference compound]
[1]; Table 8, designed based on ER inhibitors, 96 h, read-out: IC50 for inhibiting the proliferation of tumor cells, CCRF-CEM
  IC50: > 10000 nM
[9]; Homo sapiens, HCC827, read-out: IC50 for inhibiting the proliferation of tumor cells, HCC827
  IC50: > 10 µM
[2]; Table 8, designed based on ER inhibitors, 96 h, read-out: IC50 for inhibiting the proliferation of tumor cells, Hep3B2.7-1
  IC50: > 10 µM
[4]; Table 8, designed based on ER inhibitors, 72 h, read-out: IC50 for inhibiting the proliferation of tumor cells, MM.1S
  IC50: > 10000 nM
[5]; Table 8, designed based on ER inhibitors, 96 h, read-out: IC50 for inhibiting the proliferation of tumor cells, T47D
  IC50: > 10000 nM

## CN(C)C(=O)c1cc2cnc(Nc3ccc(N4CCC(N(C)Cc5ccc6c(c5)CN(C5CCC(=O)NC5=O)C6=O)CC4)cn3)nc2n1C1CCCC1 (stereo not drawn) [GT-03544, 7-cyclopentyl-2-((5-(4-(((2-(2,6-dioxopiperidin-3-yl)-1-oxoisoindolin-5-yl)methyl)(methyl)amino)piperidin-1-yl)pyridin-2-yl)amino)-N,N-dimethyl-7H-pyrrolo[2,3-d]pyrimidine-6-carboxamide]
[8]; [23]
  IC50 for inhibiting the proliferation of tumor cells, SU-DHL-6: A+

## CN(CCOc1ccc(/C(=C(/CCCl)c2ccccc2)c2ccccc2)cc1)Cc1ccc2c(c1)CN(C1CCC(=O)NC1=O)C2=O (stereo not drawn) [GT-02970, (Z)-3-(5-(((2-(4-(4-chloro-1,2-diphenylbut-1-en-1-yl)phenoxy)ethyl)(methyl)amino)methyl)-1-oxoisoindolin-2-yl)piperidine-2,6-dione]
[5]; [21]
  IC50 for inhibiting the proliferation of tumor cells, T47D: A+

## CNC(=O)c1ccccc1Nc1cc(Nc2ccc(N3CCN(Cc4ccc5c(c4)CN(C4CCC(=O)NC4=O)C5=O)CC3)cc2OC)ncc1C(F)(F)F (stereo not drawn) [GT-03014, 2-((2-((4-(4-((2-(2,6-dioxopiperidin-3-yl)-1-oxoisoindolin-5-yl)methyl)piperazin-1-yl)-2-methoxyphenyl)amino)-5-(trifluoromethyl)pyridin-4-yl)amino)-N-methylbenzamide]
[1]; Table 18, FAK inhibitor based, read-out: IC50 inhibiting proliferation of tumor cells, CCRF-CEM
  IC50: < 50 nM
[12]
  IC50: 1000 to 5000 nM
[13]
  IC50: 50 to 100 nM
[14]
  IC50: 100 to 500 nM
[10]; Homo sapiens, Table 18, FAK inhibitor based, Mino, read-out: IC50 inhibiting proliferation of tumor cells, Mino
  IC50: < 50 nM
[11]; Homo sapiens, SW-620, Table 18, FAK inhibitor based, SW620, read-out: IC50 inhibiting proliferation of tumor cells, SW620
  IC50: < 50 nM
[15]
  IC50: 1000 to 5000 nM

## Cc1nc2c(F)cc(-c3nc(Nc4ccc(N5CCC(N(C)Cc6ccc7c(c6)CN(C6CCC(=O)NC6=O)C7=O)CC5)cn4)ncc3F)cc2n1C(C)C (stereo not drawn) [GT-03639, 3-(5-(((1-(6-((5-fluoro-4-(4-fluoro-1-isopropyl-2-methyl-1H-benzo[d]imidazol-6-yl)pyrimidin-2-yl)amino)pyridin-3-yl)piperidin-4-yl)(methyl)amino)methyl)-1-oxoisoindolin-2-yl)piperidine-2,6-dione]
[8]; [23]
  IC50 for inhibiting the proliferation of tumor cells, SU-DHL-6: A+
[10]; [23]
  IC50 for inhibiting the proliferation of tumor cells, Mino: A+

Source: US20260199323A1, “LIGAND COMPOUNDS FOR E3 UBIQUITIN LIGASE, PROTEIN DEGRADERS DEVELOPED ON BASIS OF LIGAND COMPOUNDS, AND USES THEREOF” (GLUETACS THERAPEUTICS (SHANGHAI) CO., LTD., priority 2021, published 2026)
